# Laboratory results published in patent US9463188B2, “Osteopontin production inhibitor containing dictyopyrone derivative or dihydrodictyopyrone derivative as active ingredient” (TOHOKU UNIVERSITY, priority 2013, dated 2016).
# Key:
# [1] = tested on: OPN production by human non-small cell lung cancer-derived cell line A549; assay: OPN production by A549 cells (Human Osteopontin Immunoassay, per mg protein); format: cell-based; details: 2-day culture
# Procedure: (§1) The confirmation test was performed in the following manner. The compound 3 wad added to a culture liquid containing cells of a human non-small cell lung cancer-derived cell line A549 or a human liver cancer-derived cell line HepG2, and the amount of OPN in culture supernatant after 2-day culture was measured using Human Osteopontin Immunoassay kit (R&D systems) and compared with the OPN amount of a compound 3-free group (control group).
# (§2) The compound 3 has also cell growth inhibitory effect. Therefore, in order to properly evaluate the OPN production-suppressing effect of the compound 3, 1×CCLR used in luciferase assay was added to cells remaining in each well after removal of culture supernatant to prepare a cell lysate, and the amount of protein in the cell lysate was measured using BCA Protein Assay Kit (Thermo Scientific). The influence of addition of the compound 3 on the amount of OPN production was evaluated by comparison of the amount of OPN per milligram of protein.
# First, A549 cells or HepG2 cells were suspended in DMEM medium containing 10% FCS and 1% P/S at 4×10^4 cells/mL to obtain a cell suspension, and 500 μL of the cell suspension was dispensed into each well of a 24-well plate. In order to perform the test in triplicate, 3 wells were prepared for a control group and 3 wells were prepared for each test compound-treated group at each concentration. […]
# [2] = tested on: OPN production by human liver cancer-derived cell line HepG2; assay: OPN production by HepG2 cells (Human Osteopontin Immunoassay, per mg protein); format: cell-based; details: 2-day culture; for suppression of OPN production vs control group: significance level less than 1%
# Procedure: as §1, §2
# First, A549 cells or HepG2 cells were suspended in DMEM medium containing 10% FCS and 1% P/S at 4×10^4 cells/mL to obtain a cell suspension, and 500 μL of the cell suspension was dispensed into each well of a 24-well plate. In order to perform the test in triplicate, 3 wells were prepared for a control group and 3 wells were prepared for each test compound-treated group at each concentration. The 24-well plate was incubated in a CO2 incubator (at 37° C. and 5% CO2) for 24±4 hours.
# The 3.75 mmol/L compound 3 solution or the 7.5 mmol/L compound 3 solution was added in an amount of 2 μL to each well in which HepG2 cells were cultured. Only DMSO was added to each control well in an amount of 2 μL.
# The 24-well plate was rocked back and forth and side to side to mix the solution in each well, and was then incubated in a CO2 incubator (at 37° C. and 5% CO2) for 48±4 hours. Then, the total amount of culture supernatant was transferred into a 1.5 mL tube, and 500 μL of D-PBS(−) was added to each well in which cells are remained. […]
smiles,measurement,setting,value
CCCCCCCCCCCC(=O)[C@H]1C(=O)O[C@@H](C)C[C@@H]1C [Chemical formula 3],suppression of OPN production vs control group,"[1]; 30 μmol/L, significance level less than 5%",significantly suppressed
same,suppression of OPN production vs control group,"[1]; 60 μmol/L, significance level less than 1%",significantly suppressed
same,suppression of OPN production vs control group,[2]; 15 μmol/L,significantly suppressed
same,amount of OPN produced relative to control group,[2]; 30 μmol/L,reduced to half or less
same,suppression of OPN production vs control group,[2]; 30 μmol/L,significantly suppressed
